Measurements taken from patent US20150030683A1, “FORMULATIONS AND METHODS FOR THE TREATMENT OR PROPHYLAXIS OF PRE-MCI AND/OR PRE-ALZHEIMER'S CONDITIONS” (BUCK INSTITUTE FOR RESEARCH ON AGING, priority 2012, published 2015).

What was measured:
MBP-eAPP230-624 = molecular target: T1, MBP-eAPP230-624 (Homo sapiens, UniProt P05067); assay: Small-angle X-ray scattering of MBP-eAPP230-624 incubated with the agent; assay type: binding; details: for MWcalc/MWseq / Rg (radius of gyration) / Dmax (maximum dimension): MBP-eAPP230-624 incubated with 50 μM agent, 4° C., 1 hour; for MWcalc/MWseq: ± 0.2; for Rg (radius of gyration): ± 2; for Dmax (maximum dimension): ± 10; for Binding to APP (MBP-eAPP230-624) and effect on conformation/dimerization: small-angle X-ray scattering, 50 μM agent
T1 construct: purified MBP-eAPP230-624 were incubated with 50 μM Disulfiram or 50 μM Sulfiram
T1 sequence (P05067 230-624 isoform P05067-4): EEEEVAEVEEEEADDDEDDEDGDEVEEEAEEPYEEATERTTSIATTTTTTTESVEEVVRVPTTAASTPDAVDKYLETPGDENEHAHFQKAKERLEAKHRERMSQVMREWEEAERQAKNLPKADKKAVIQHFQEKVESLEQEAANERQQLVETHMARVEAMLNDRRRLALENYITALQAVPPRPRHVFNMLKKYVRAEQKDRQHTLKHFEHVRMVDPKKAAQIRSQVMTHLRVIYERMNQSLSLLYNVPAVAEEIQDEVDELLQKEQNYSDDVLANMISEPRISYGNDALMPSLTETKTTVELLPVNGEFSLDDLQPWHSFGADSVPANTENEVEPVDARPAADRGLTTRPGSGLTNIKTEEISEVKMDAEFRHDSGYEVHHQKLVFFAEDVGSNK
Protocol: To 100 μg of purified MBP-eAPP230-624 were incubated with 50 μM Disulfiram or 50 μM Sulfiram in 20 mM sodium phosphate pH 7.4, 137 mM sodium chloride, 0.05% dimethyl sulfoxide at 4° C. for 1 hour. The control sample was incubated in the buffer alone. The samples were then concentrated to approximately 1.5 mg/ml using […] NML concentrators. Small-angle X-ray scattering data were collected using protein concentrations in the range of 0.25-1.5 mg/ml and an X-ray wavelength of 1.11 Å at beam line 12.3.1 (Advanced Light Source). Samples of the filtrate were used for buffer subtraction. Data were integrated with software customized for the beam line and processed with the program PRIMUS (Konarev (2003) Journal of Applied Crystallography 36, 1277-1282). The program GNOM (Svergun (1992) J. Appl. Crystallogr. 25, 495-503) was used to calculate the maximum dimension and the radius of gyration and to estimate the intensity of the scattering at zero angle for higher concentration samples. The molecule weight of each protein was calculated by comparing to the scattering of proteins of known molecule weight.
The apparent drop in molecular weight and maximum dimension (Dmax) are consistent with both sulfiram and disulfiram disrupting the MBP-eAPP230-624 dimers.

[1] = Brain uptake testing (PK): plasma and brain levels by LC/MS/MS; design: species or system mice; details: mouse, in vivo, sc; for Kp: 10 mg/kg
Protocol: In general, CNS exposure studies consisted of collection of heparinized plasma and brains after treatment with tropisetron, nimetazepam, disulfiram and honokiol following subcutaneous (sc) administration of the molecules at 10 mg/kg. Plasma and brain levels of the agent(s) were determined by quantitative LC/MS/MS methodology, conducted at Integrated Analytical Solutions (on the internet at ianalytical.net). Plasma samples were precipitated with acetonitrile:methanol (1:1) cocktail containing an internal standard. The brain samples were homogenized directly in ethylacetate or extracted from 5M guanidine homogenates using the liquid-liquid method. The resulting supernatant were evaporated to dryness and subjected to the LC/MS/MS analysis. For each agent 3 mice were used for analysis. The brain-to-plasma ratios and brain levels were then be calculated to identify the best candidate(s) for further testing.

[2] = tested on: sAPPα, Aβ40 and Aβ42 levels; assay: Aβ40/42, sAPPα levels in brain (PD) of Alzheimer's disease transgenic mice (PDAPP model); assay type: in vivo; details: Tg mice; for sAPPα levels in hippocampus (Hip) and entorhinal cortex (ECx) / Aβ40 levels / Aβ42 levels: 10 mpk sc, 5 days
Protocol: […]® kits from Perkin Elmer (PE) were used to quantify sAPPα (cat#: AL254C), sAPPβ (cat#: AL232C), Aβ40 (cat #: AL275C), Aβ42 (cat #: AL276C) and Tau (cat#: AL271C) from brain homogenates. The samples are added to an AlphaPlate-384 (cat#: 6005350). Twenty microliters (μl) of acceptor bead antibody mix was added to each five μl cerebrospinal fluid (CSF) sample and allowed to incubate for one hour at room temperature. Next, 25 μl of donor beads were added and allowed to incubate in the dark for 30 minutes at room temperature. Fluorescence was then measured on an EnsPire 96-well plate reader (Perkin-Elmer).
ELISA kits from Invitrogen were also used to quantify Aβ1-40 (KHB3481) and Aβ1-42 (KHB3544) in duplicate from the CSF samples stored at −80° C. For assay, samples were thawed on ice and BSL-2 precautions practiced at all times. For the human Aβ 1-42 ultrasensitive ELISA, samples were diluted 1:2 (50 μl CSF plus 50 μl kit-provided standard diluent buffer). For the human Aβ1-40 ELISA, samples were diluted 1:15 (6.7 μl CSF plus […] of standard diluent buffer). Assays were performed according to manufacturer's instructions. In short, standards and samples were added to a plate pre-coated with a monoclonal capture antibody specific for the amino terminus of Hu Aβ. The samples were co-incubated with a rabbit detection antibody (Ab) specific for the carboxy terminus of the Aβ species being assayed for 3 hr at room temperature (Aβ 1-40) to overnight at 4° (Aβ 1-42) with gentle rocking After washing, bound rabbit Ab was detected using a horseradish peroxidase-labeled anti-rabbit secondary Ab. After washing again, bound HRP-anti rabbit Ab was detected colorimetrically (Spectramax 190, Molecular Devices) by the addition of a substrate solution. 1 mM 4-(2-Aminoethyl)benzenesulfonyl fluoride hydrochloride (AEBSF) protease inhibitor (101500, Calbiochem) was added to standards and samples.
In general, as part of the CNS exposure studies in Alzheimer's disease transgenic (Tg) mice (e.g., the PDAPP mouse model of Alzheimer's disease), tropisetron, nimetazepam, disulfiram and honokiol effects on biomarkers were also measured. In case of tropisetron the testing was done at 0.3 mpk, while in case of the other agent(s) (e.g., nimetazepam, disulfiram and honokiol) it was done at 10 mpk. From the collected brains the hippocampi were dissected. Levels of sAPPα, and Aβ1-40 and Aβ1-42 were measured by […] assay ([…] Perkin-Elmer), and Aβ1-42 (Invitrogen, sensitive ELISA kit) in brain homogenates of Tg mice. All procedures involved have been described (Galavan 2006, Proc Natl Acad Sci USA, 103, 7130-7135). […] The brain-to-plasma ratio (PK) of tropisetron and sAPPalpha/Aβ42 ratios (PD) were then determined.

[3] = tested on: 7W cells stably transfected with APP; assay: […] assay in 7W APP transfected cells; assay type: cell-based; details: 1 μM agent, 24 h
Protocol: 7W CHO cells were seeded at 50,000 cells/well in a 96 wells plate for 24 h. Then their medium was changed for fresh medium supplemented with 1 μM of the agent(s) of interest (e.g., tropisetron, disulfiram, honokiol, and/or nimetazepam). After 24 h, 20 μl of the medium was added to 2 μl of the complete protease inhibitor with 1 μM EDTA and kept at 4° C. until analysis. 2 μl of that medium was treated with the Perkin Elmer (PE) […]® Aβ kit to determine the amount of Aβ42 secreted by the cells in 24 h using the PE-Enspire reader. Another aliquot of 2 μl of the medium was diluted with 50 μl of the PE […]® buffer and was treated with the PE […]® sAPPαkit to determine the amount of sAPPαsecreted by the cells in 24 h. For the assay, 2 μl of the final mixture was treated with the acceptor bead and the donor antibody followed by addition of the donor beads and the […]® signal was measured using a PE-Enspire reader. For measurement of APPneo, the 50,000 cells were treated after seeding with fresh medium supplemented with or without the agent(s), but without fetal bovine serum (FBS), in order to induce the formation of the APPneo fragment. After 24 h the medium was removed, the cells on the bottom of the wells were washed three times with phosphate buffered saline (PBS) and then lysed with 50 μl of the Perkin Elmer […]® buffer and with 10% of the complete protease inhibitor with EDTA. […]

[4] = Degradation in brain tissue; assay type: in vitro ADME; details: probably reduced at the disulfide bond
[5] = known for the benzodiazepine; cited from earlier work

| SMILES | MWcalc/MWseq (MBP-eAPP230-624) | Rg (radius of gyration) (MBP-eAPP230-624) [Å] | Dmax (maximum dimension) (MBP-eAPP230-624) [Å] | Binding affinity compared with sulfiram (MBP-eAPP230-624; inferred from greater effect in X-ray scattering) | Binding to APP (MBP-eAPP230-624) and effect on conformation/dimerization (MBP-eAPP230-624) | Binding to APP (MBP-eAPP230-624) and effect on conformation/dimerization (MBP-eAPP230-624; listed as disulfiram) | blood-brain-barrier / brain penetration [1] | Kp [1] | Aβ levels ([2]; 10 mpk) | sAPPα levels in hippocampus (Hip) and entorhinal cortex (ECx) [2] | sAPPα levels secreted by 7W cells [3] | Stability in brain tissue [4] | Aβ40 levels [2] | Aβ42 levels [2] | sAPPα levels in hippocampus (Hip) and entorhinal cortex (ECx) ([2]; 10 mg/kg) | sAPPα levels in hippocampus (Hip) and entorhinal cortex (ECx) ([2]; listed as nimetazepam, 10 mg/kg) | blood-brain-barrier crossing [5] |
| --- | --- | --- | --- | --- | --- | --- | --- | --- | --- | --- | --- | --- | --- | --- | --- | --- | --- |
| CCN(CC)C(=S)SSC(=S)N(CC)CC [Disulfiram, 1,1′,1″,1′″-[disulfanediylbis(carbonothioylnitrilo)]tetraethane] | 1.5 | 51 | 160 | higher binding affinity | can bind to APP and disrupt APP dimerization | bind to MBP-eAPP230-624 and alter the conformation of the protein | low blood-brain-barrier penetration | < 0.1 | no changes | no changes | increase | degrades rapidly | – | – | – | – | – |
| CCN(CC)C(=S)SC(=S)N(CC)CC [Sulfiram] | 1.7 | 53 | 170 | – | bind to MBP-eAPP230-624 and alter the conformation of the protein | – | – | – | – | – | – | – | – | – | – | – | – |
| C=CCc1ccc(O)c(-c2ccc(O)c(CC=C)c2)c1 [Honokiol, 2-(4-hydroxy-3-prop-2-enyl-phenyl)-4-prop-2-enyl-phenol] | – | – | – | – | – | – | penetrates the brain well | ~1 | – | no significant increase | – | – | No significant changes | No significant changes | – | – | – |
| CN1C(=O)CN=C(c2ccccc2)c2cc([N+](=O)[O-])ccc21 [Nimetazepam, 2-methyl-9-nitro-6-phenyl-2,5-diazabicyclo [5.4.0]undeca-5,8,10,12-tetraen-3-one] | – | – | – | – | – | – | – | – | – | – | – | – | No significant changes | No significant changes | significant increase | increase | known to cross the blood-brain-barrier well |
